Measured values published in ChEMBL document CHEMBL1201862, “PubChem BioAssay data set” (2004).
The source made the active and inactive calls.

How the values were obtained:
[1] = target: T1, Sentrin-specific protease 8 (Homo sapiens, UniProt Q96LD8); assay type: functional
T1 sequence (Q96LD8 whole entry): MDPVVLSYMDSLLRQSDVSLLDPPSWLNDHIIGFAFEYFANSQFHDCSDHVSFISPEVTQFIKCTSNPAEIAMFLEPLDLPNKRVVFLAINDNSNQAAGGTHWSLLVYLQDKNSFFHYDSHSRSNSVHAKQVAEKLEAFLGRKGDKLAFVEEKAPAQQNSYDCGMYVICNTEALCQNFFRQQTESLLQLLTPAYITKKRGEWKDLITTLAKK

[2] = target: T2, Sentrin-specific protease 7 (Homo sapiens, UniProt Q9BQF6); assay type: functional;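 also: Luminescence-based dose-response confirmation of ultra-high-throughput screening hits, measuring inhibition of SENP7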
T2 sequence (Q9BQF6 whole entry): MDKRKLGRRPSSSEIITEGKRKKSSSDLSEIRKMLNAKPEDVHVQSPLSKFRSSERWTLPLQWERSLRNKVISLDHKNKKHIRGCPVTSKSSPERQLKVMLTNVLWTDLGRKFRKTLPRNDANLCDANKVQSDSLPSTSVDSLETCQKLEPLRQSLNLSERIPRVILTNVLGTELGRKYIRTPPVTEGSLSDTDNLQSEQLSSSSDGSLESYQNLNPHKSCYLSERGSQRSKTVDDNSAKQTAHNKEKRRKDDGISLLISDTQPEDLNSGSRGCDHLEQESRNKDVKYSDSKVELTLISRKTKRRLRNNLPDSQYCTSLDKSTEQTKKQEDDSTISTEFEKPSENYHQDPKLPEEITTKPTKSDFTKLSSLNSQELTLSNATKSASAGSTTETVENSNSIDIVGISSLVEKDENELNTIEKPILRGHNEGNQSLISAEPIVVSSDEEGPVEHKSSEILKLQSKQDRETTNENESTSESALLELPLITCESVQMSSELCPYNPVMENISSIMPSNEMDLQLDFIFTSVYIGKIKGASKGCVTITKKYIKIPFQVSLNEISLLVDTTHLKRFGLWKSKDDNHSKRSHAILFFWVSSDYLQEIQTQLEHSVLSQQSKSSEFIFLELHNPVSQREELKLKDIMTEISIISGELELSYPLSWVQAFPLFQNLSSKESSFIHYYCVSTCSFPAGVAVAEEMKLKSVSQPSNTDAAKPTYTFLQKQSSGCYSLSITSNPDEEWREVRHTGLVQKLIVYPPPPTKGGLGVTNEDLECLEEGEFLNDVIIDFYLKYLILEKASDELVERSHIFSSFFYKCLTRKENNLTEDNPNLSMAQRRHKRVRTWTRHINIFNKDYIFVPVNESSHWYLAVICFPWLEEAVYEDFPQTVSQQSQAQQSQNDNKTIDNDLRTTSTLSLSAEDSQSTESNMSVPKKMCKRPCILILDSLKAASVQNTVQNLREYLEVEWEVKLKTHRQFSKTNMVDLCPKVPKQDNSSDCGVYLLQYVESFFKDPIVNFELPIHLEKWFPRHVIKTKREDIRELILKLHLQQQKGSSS

[3] = target: T1, Sentrin-specific protease 8; assay type: functional; remark: listed apart in the source
[4] = target: T1, Sentrin-specific protease 8; assay type: functional; remark: listed apart in the source
[5] = target: T3, Caspase-3 (Homo sapiens, UniProt P42574); assay type: functional;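 also: Dose-response selectivity test against caspase-3 for candidate inhibitors of sentrin-specific proteases (SENPs)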
T3 sequence (P42574 whole entry): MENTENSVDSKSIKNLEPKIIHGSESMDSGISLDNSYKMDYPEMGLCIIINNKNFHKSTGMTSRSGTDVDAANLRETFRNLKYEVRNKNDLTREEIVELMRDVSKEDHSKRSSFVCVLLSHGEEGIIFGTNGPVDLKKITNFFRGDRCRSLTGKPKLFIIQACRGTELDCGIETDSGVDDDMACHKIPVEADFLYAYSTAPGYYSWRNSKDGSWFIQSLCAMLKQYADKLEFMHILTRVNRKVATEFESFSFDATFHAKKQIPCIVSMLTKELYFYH

[6] = target: T4, Sentrin-specific protease 6 (Homo sapiens, UniProt Q9GZR1); assay type: functional;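 also: Luminescence-based dose-response confirmatory assay of SENP6 inhibition, following up an ultra-high-throughput screen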
T4 sequence (Q9GZR1 whole entry): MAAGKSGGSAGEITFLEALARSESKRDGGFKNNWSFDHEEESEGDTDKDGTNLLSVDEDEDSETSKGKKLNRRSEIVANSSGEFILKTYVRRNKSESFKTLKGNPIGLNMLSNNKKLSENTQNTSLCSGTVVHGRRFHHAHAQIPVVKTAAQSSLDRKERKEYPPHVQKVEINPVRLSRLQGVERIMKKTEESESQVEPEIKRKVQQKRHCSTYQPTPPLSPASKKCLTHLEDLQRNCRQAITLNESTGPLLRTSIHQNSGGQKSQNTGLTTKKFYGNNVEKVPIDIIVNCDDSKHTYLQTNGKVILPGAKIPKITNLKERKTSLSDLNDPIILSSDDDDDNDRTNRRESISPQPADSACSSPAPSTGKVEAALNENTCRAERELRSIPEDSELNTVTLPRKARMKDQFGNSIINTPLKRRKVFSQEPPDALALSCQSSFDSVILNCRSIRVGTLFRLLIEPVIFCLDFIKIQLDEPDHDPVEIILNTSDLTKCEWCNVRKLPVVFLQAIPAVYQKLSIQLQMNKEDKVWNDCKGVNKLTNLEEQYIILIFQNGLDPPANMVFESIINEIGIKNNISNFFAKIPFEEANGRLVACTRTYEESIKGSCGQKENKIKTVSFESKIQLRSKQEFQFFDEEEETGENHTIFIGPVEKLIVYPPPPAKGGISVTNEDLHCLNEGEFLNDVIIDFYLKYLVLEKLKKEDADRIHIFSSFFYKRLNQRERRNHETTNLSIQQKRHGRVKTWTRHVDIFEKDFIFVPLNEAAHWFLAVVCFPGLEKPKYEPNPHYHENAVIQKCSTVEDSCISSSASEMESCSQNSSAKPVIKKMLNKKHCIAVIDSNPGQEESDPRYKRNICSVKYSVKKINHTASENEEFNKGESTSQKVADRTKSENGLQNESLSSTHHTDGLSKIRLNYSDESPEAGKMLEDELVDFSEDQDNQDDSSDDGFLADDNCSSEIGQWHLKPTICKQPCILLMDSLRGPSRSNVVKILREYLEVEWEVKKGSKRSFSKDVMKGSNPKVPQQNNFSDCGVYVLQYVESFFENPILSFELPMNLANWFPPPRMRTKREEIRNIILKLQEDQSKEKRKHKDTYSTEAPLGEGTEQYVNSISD

[7] = target: T5, Caspase-6 (Homo sapiens, UniProt P55212); assay: inhibition of CASP6 peptide cleavage – biochemical, VEID-R110 fluorescence, cherry-pick, dose response (AID 720632)
T5 sequence (P55212 whole entry): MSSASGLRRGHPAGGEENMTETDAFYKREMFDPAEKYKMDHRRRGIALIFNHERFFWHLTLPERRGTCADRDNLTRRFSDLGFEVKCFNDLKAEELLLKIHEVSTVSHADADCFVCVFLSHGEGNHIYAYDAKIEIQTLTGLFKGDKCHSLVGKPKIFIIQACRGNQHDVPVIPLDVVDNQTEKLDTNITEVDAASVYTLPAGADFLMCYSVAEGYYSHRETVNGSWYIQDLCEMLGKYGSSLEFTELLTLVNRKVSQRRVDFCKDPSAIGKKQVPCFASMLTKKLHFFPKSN

[8] = Counterscreen for inhibitors of Trypanosoma brucei methionyl tRNA synthetase (MetRS): Luminescence-based cell-based high throughput dose response assay to identify compounds that are cytotoxic to Jurkat human T lymphocyte cells.; assay type: functional
[9] = target: T6, Methionyl-tRNA synthetase, putative (Trypanosoma brucei brucei, UniProt Q38C91); assay type: functional, Trypanosoma brucei brucei strain 927/4 GUTat10.1
T6 sequence (Q38C91 whole entry): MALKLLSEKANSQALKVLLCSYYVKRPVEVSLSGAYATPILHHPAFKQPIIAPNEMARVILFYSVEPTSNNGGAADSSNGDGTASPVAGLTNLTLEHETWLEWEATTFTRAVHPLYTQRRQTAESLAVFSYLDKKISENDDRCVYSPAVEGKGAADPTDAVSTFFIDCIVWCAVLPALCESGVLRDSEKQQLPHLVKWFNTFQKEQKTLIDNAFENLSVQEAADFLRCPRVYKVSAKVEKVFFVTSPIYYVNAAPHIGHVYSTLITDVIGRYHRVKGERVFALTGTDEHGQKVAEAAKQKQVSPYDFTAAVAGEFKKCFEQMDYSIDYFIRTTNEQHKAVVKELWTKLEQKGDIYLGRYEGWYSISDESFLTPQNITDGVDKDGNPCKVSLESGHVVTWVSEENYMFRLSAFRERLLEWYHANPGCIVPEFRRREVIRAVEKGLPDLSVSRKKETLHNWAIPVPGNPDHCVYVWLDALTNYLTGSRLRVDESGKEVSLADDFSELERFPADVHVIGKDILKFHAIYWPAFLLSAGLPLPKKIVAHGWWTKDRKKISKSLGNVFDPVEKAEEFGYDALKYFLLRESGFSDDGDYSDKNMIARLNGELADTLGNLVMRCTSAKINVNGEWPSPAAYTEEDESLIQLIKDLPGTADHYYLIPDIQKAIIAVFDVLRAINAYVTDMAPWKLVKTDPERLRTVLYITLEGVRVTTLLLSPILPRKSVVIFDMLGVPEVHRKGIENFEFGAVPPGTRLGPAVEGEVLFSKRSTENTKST

[10] = target: T6, Methionyl-tRNA synthetase, putative; assay type: functional, Trypanosoma brucei brucei strain 927/4 GUTat10.1; remark: listed apart in the source
[11] = target: SWI/SNF-related matrix-associated actin-dependent regulator of chromatin subfamily A member 2 (Homo sapiens, UniProt P51531); assay: Luminescence-based cell-based high throughput dose response assay to identify activators of the function of SWI/SNF related, matrix associated, actin dependent regulator of chromatin, subfamily a, member 2 (SMARCA2, BRM).; assay type: functional
[12] = Counterscreen for activators of the function of SWI/SNF related, matrix associated, actin dependent regulator of chromatin, subfamily a, member 2 (SMARCA2, BRM): Luminescence-based cell-based high throughput dose response assay to identify non-selective compounds using the VP16 reporter assay.; assay type: functional
[13] = target: T7, Heat shock factor protein 1 (Mus musculus, UniProt P38532); assay: enhancement of HSF1-driven luciferase signal – cell-based, NIH3T3, luminescence, dose retest, confirmation (AID 435004); assay type: functional;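 also: stress induced by proteasome inhibitor MG132 added 30 min after compound; luciferase reporter driven by HSF1 response element in NIH3T3 cells; actives raise luminescence as potentiators of the MG132 stress response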
T7 sequence (P38532 whole entry): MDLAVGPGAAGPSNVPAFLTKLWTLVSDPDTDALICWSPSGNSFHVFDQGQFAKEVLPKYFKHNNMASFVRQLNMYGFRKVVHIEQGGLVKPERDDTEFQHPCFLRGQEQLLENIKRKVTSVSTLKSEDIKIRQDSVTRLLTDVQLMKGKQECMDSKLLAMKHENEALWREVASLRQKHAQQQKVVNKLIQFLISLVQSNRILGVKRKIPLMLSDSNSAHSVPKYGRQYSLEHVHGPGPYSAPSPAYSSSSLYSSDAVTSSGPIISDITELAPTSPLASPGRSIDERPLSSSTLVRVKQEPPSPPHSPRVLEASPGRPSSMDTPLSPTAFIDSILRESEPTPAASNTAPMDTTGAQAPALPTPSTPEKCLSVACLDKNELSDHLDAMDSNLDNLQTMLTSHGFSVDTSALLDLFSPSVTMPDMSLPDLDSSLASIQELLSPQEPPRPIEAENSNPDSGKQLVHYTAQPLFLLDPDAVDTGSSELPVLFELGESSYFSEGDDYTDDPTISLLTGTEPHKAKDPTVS

[14] = viability loss in HEK293T cells – cell-based, cherry-picks, cytotoxicity control for HIV Vif inhibitor project, dose response (AID 652208); assay type: functional
[15] = Luminescence Cell-Based Dose Retest to Confirm Inhibitors of Cancer Stem Cells. [Related pubchem assays (depositor defined):AID2717, AID2721]; assay type: functional; settings: Homo sapiens
[16] = target: 5-hydroxytryptamine receptor 2A (Mus musculus, UniProt P35363); assay type: functional, cell-based;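 also: CHO-K1 cells with tagged receptor and beta-arrestin; agonist potency measured as compound-induced activation of the receptor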
[17] = target: Mu-type opioid receptor (Homo sapiens, UniProt P35372); assay type: functional, cell-based;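 also: U2OS cells with beta-arrestin recruitment to OPRM1 by beta-gal complementation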
[18] = cytotoxicity in HEK293 background cells – cell-based, dry powder, set 2, counter-screen for EBV LMP1 inhibitor project, dose response (AID 624374); assay type: functional

Sequence of SWI/SNF-related matrix-associated actin-dependent regulator of chromatin subfamily A member 2 (P51531 whole entry): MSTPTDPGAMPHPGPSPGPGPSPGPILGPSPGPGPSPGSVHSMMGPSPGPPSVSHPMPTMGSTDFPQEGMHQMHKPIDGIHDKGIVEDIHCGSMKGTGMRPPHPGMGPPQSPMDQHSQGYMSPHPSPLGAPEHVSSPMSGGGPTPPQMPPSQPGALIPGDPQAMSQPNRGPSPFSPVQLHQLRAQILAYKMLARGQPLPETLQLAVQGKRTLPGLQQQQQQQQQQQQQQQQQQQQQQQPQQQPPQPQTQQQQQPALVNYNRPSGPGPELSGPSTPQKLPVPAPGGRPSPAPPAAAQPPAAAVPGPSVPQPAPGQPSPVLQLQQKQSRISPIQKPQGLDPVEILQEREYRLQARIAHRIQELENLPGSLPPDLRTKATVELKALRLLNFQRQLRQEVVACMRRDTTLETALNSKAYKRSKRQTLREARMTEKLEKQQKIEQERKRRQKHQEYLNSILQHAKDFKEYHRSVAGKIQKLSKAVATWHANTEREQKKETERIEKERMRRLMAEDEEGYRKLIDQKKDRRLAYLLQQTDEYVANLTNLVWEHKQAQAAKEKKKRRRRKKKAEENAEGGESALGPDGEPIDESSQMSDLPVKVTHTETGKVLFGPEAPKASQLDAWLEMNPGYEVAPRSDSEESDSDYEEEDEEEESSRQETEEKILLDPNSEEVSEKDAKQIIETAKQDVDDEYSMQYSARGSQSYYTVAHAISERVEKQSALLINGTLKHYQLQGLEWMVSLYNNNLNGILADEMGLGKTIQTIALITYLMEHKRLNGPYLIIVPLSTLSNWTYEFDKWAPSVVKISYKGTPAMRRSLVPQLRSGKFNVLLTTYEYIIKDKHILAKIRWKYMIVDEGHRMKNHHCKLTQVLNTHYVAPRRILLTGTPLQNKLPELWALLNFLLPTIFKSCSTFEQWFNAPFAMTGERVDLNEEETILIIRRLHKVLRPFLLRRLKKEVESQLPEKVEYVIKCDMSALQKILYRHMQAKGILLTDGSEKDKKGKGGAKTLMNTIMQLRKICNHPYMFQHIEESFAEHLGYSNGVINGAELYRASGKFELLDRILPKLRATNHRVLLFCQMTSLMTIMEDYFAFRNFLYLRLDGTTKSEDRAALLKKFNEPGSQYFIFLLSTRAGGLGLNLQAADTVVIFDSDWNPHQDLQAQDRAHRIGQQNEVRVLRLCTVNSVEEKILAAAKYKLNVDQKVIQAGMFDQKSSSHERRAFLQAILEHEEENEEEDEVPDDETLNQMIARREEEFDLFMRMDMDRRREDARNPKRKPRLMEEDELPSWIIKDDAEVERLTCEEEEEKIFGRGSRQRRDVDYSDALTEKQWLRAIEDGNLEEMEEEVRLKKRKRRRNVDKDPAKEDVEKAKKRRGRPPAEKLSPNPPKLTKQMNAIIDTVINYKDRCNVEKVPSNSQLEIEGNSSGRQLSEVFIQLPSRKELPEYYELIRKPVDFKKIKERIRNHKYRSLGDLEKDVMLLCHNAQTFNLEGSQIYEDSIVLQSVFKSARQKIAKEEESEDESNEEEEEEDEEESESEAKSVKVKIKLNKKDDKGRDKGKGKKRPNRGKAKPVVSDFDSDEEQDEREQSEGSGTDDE
Sequence of 5-hydroxytryptamine receptor 2A (P35363 whole entry): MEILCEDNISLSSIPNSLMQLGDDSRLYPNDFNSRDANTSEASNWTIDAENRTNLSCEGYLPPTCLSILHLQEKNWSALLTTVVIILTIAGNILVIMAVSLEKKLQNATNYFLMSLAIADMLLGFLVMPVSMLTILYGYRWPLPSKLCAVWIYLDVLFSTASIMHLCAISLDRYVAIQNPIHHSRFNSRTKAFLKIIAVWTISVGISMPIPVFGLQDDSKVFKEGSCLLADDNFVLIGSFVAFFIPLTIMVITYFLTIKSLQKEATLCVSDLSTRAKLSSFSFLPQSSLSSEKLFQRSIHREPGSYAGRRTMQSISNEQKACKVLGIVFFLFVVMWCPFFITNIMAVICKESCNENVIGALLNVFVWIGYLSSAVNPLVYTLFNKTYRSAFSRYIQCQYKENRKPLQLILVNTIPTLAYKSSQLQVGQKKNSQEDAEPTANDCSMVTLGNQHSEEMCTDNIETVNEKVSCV
Sequence of Mu-type opioid receptor (P35372 whole entry): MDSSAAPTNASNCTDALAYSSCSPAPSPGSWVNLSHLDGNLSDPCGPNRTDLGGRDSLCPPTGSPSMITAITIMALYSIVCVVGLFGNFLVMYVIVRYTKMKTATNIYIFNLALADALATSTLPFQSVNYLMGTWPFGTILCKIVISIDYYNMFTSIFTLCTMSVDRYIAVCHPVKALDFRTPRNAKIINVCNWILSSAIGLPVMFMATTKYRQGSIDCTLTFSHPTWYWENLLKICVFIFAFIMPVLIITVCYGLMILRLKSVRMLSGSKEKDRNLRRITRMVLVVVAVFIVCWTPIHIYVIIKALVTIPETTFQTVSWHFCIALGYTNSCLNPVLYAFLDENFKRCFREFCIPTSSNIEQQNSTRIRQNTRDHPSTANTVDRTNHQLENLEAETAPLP

O=C1OC(Nc2cc(Br)cc3cccnc23)c2ccccc21 (stereo not given)
IC50 [1]: 1.63 µM (active) | IC50 [2]: 1.79 µM (active) | IC50 [3]: 8.4 µM (active) | IC50 [4]: > 100 µM (inactive) | IC50 [5]: 2.67 µM (active) | IC50 [6]: < 1.55 µM (active) | AC50 [7]: 11.1 µM (active)

Oc1nc(CSc2ncc(C(F)(F)F)cc2Cl)nc2ccccc12
IC50 [8]: 35.7 µM (inactive) | IC50 [9]: 14.4 µM (inactive) | IC50 [10]: 5.35 µM (active)

Brc1ccc2[nH]c3c(NCc4ccccn4)ncnc3c2c1
IC50 [8]: 83.3 µM (inactive) | IC50 [9]: 5.71 µM (active) | IC50 [10]: 3.47 µM (active)

N#CCn1cnc2sc(-c3ccccc3)cc2c1=O
EC50 [11]: > 91.2 µM (inactive) | EC50 [12]: > 91.2 µM (inactive)

CC(C)(C)CC(=O)O/N=C(\N)c1ccccn1
EC50 [11]: > 91.1 µM (inactive) | EC50 [12]: > 91.1 µM (inactive)

O=C(COC(=O)/C=C/C(=O)OCC(=O)Nc1ccccc1F)Nc1ccccc1F
EC50 [13]: 11.1 µM (active) | AC50 [14]: 44.3 µM (active) | AC50 [15]: 7.02 µM (active)

CCOc1ccc(CN2CCN(C(=O)c3ccco3)CC2)cc1
EC50 [16]: 0.965 µM (active) | EC50 [17]: 92.5 µM (inactive)

CC12CCC(C(=O)N(CCCCN3CCN(c4ccccn4)CC3)C1=O)C2(C)C (stereo not given)
EC50 [16]: 0.0105 µM (active) | EC50 [17]: 92.5 µM (inactive)

N#C[C@H]1[C@@H](c2ccc(-c3cccnc3)cc2)[C@@H](CO)N1C(=O)Nc1ccc(F)cc1
AbsAC35 [18]: 162.11 µM
